Measured values as given in patent publication EP2646421B1, “7-NITRO-5-PHENYL-1-(PYRROLIDIN-1-YLMETHYL)-1H-BENZO[E][1,4]DIAZEPIN-2(3H)-ONE AND OTHER BENZODIAZEPINE DERIVATIVES” (Pignataro, Giuseppe, priority 2010, dated 2012).
“Also recorded” adds a separate entry of the source.

How the values were obtained:
BHK cells = assay: Cell viability by fluorescein diacetate / propidium iodide staining; assay type: cell-based, hamster; conditions: 10 µM, 24 hours
Excerpt: Fluorescein diacetate (FDA) is an apolar ester that could cross plasmamembrane. […] The polar compound propidium-iodide (PI) can not cross an intact plasmamembrane, so this is a good marker of necrotic cells. Once PI enters into the cell, this compound interact with nuclear DNA and give a fluorescent red light. Consequently, in the same cellular population, it is possible to discriminate live cells from dead cells, because the last group are PI-positive. In PI/PDA experiments, BHK cells were firstly treated with 10 µM neurounina-1 for 24 hours and then incubated for 3 minutes, at 22°C, in a PBS solution containing fluorescein diacetate (FDA; Sigma) and propidium iodide (PI, Calbiochem, San Diego, CA, U.S.A.), at the concentrations of di 36 µM e 7 µM, respectively. At the end of the incubation, cells were washed with PBS and observed at the microscope.

[1] = tested on: ischemic volume after tMCAO; assay: Transient middle cerebral artery occlusion (tMCAO) cerebral ischemia model; assay type: in vivo, mice
Excerpt: For experimental stroke male wild-type C57BL of 2 months have been used. All mice were anesthetized with a gas containing 70 % N2O, 28% O2 e 2% sevoflurane).
Usually, after anesthesia an incision on the ventral neck is made and, under an operating stereo-microscope and with the help of microsurgery twizzers, the muscle is diverted until the common carotid artery (CCA). Then, through smoothly diversion, the CCA is isolated from the vague nerve and the jugulars vein. Analogously, the external carotid artery (ECA) and the internal carotid artery (ICA) are isolated as well.After the isolation of these vessels and the positioning of vascular microclips, a nylon filament (5-0, Ethilon, 11 mm length) is inserted into the internal carotid artery (ICA), at the level of bifurcation with the common carotid artery. The filament is pushed in cranial direction until is reached the bifurcation of the middle cerebral artery (MCA), whose flux is interrupted. After the insertion of the filament the wound is closed with a temporary suture and the mouse is let to awake. After 60 minutes the animal is re-anesthesized and the ischemia is interrupted through the filament rimotion from the vessel. The reduction in cerebral blood flow has been evaluated by means of a cerebral laser-Doppler system (Periflux, Sweden with software Perimed 1.30) that uses a probe fixed on the skull. The body temperature has been maintained constant by means of a homoeothermic blanket connected to a rectal probe. Few minutes after the end of the surgical procedure the mouse awakes and, on the nasis of the pain degree noticed, is decided for the administration of analgesic drugs. Neurounina-1 administration has been done intraperitoneally at different dosages, immediately before, 3 hours or 5 hours the ischemia onset. 24 hours after the surgical procedure, the animal is killed through cervical dislocation and the brain is removed from the skull and analyzed for the determination of the ischemic damage extension. In particular, by means of a vibratome, serial coronal brain sections of […] are obtained. These brain sections are treated with 2,3,5-triphenyl tetrazolium chloride (TTC), an organic compound that has the peculiarity of being oxidized and precipitated as formazan salt only from vital tissue. By contrast, the ischemic tissue, being not able to generate this reaction, remains white. […] The software used (Image Pro-plus 4.1) allows, then, to obtain the brain infarct volume from the value of the infarct areas obtained in close brain slices.Data obtained in this manner are then elaborated to obtain a percentage evaluation of the ischemic damage induced compared to the brain hemisphere […] to the ischemic lesion.

N1-109/133 = target: T1, N1-109/133 (Canis lupus familiaris, UniProt P23685, N157G/T159I/V150L); assay: Na+-dependent 45Ca2+ uptake and efflux on NCX1/NCX3 chimera; assay type: cell-based; conditions: 10 nM; NCX1 region 109-133 (α1) substituted with NCX3 segment
T1 construct: expressed in transfected cells
T1 sequence (P23685 33-970 V150L/N157G/T159I): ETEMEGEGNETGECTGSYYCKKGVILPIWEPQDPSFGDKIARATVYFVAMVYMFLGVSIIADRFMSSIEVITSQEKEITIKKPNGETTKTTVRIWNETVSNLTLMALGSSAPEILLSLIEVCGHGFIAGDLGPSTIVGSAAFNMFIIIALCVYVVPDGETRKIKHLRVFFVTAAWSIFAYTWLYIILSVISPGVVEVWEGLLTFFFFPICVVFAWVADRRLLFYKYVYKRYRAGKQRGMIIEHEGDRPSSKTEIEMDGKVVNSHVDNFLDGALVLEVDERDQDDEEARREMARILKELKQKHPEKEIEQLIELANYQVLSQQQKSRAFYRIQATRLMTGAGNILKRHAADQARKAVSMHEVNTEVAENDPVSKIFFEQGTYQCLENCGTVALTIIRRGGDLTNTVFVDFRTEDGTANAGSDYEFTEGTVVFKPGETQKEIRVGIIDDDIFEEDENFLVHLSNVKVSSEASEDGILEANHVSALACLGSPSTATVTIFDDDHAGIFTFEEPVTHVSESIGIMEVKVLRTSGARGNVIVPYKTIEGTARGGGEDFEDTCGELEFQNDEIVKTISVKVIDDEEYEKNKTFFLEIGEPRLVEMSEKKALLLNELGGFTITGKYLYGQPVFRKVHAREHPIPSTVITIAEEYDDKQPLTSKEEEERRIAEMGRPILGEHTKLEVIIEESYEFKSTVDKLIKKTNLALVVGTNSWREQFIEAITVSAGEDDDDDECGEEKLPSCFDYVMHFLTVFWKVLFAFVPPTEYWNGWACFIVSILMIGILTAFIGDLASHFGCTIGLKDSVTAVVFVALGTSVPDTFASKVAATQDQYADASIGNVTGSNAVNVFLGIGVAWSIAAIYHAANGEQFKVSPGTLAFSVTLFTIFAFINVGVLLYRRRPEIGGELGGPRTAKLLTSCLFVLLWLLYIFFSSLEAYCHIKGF
Excerpt: (§1) To deeper investigate on the regions and amino acids present on NCX1 responsible for the interaction with neurounina-1 compound, we utilized chimeric and site-mutated proteins. In particular, we generate chimeric proteins with a large sequence of NCX1 and some regions of NCX3 protein. […] By using the chimeric technique it is possible to determine the importance of NCX1 regions by substituting with analogue segments of NCX3 protein. […] Therefore, these two regions result to be involved in the pharmacological modulation of NCX1 from neurounina-1 compound.
(§2) All experiments aimed to identify the binding site of neurounina-1 were performed on BHK cells stably transfected with a single NCX chimera or mutant.
(§3) The activity of the Na^+/Ca^2+ exchanger was measured by means of ^45Ca^2+ radiotracer variations in the cytoplasm of cells exposed to a protocol stimulating the forward or the reverse mode of the antiporter. The BHK cells expressing each mutated or non-mutated NCX isoform were cultured in 12-well dishes and incubated in 145 mM NaCl for 10 minutes and then in a medium containing only 145 mM N-Methyl D-glucamine (NMDG) and 10 µM of ^45Ca^2+. This rapid substitution of the medium from a high level of Na^+ to another one without Na^+ allow the ^45Ca^2+ influx (reverse mode). Before the medium substitution cells was incubated with 1 mM ouabain, a Na^+/K^+ pump inhibitor, and 10 µM monensin, a ionophore for extracellular Na^+. After 30 seconds incubation, cells were washed with an ice-cold solution containing 2 mM La^3+ to stop ^45Ca^2+ uptake. The medium was removed and cells were subsequently lysed with 0.1 N NaOH and aliquots were taken to determine radioactivity and protein content.
(§4) In order to measure NCX activity in the forward mode, cells were firstly loaded with ^45Ca^2+ and subsequently exposed to a chemical protocol to stimulate the efflux of the radiotracer in the extracellular medium. […] After 60 second, cells were lysed with […] NaOH and aliquots were taken to determine cytoplasmatic radioactivity.

N1-788/829 = target: T2, N1-788/829 (Canis lupus familiaris, UniProt P23685, L840F/Q858V/T855L/V852A); assay: as above; assay type: cell-based; conditions: 10 nM; NCX1 region 788-829 (α2) substituted with NCX3 segment
T2 construct: expressed in transfected cells
T2 sequence (P23685 33-970 L840F/V852A/T855L/Q858V): as the sequence (P23685 33-970 V150L/N157G/T159I) above, with L118V, G125N, I127T, L808F, V820A, T823L, Q826V counted along it
Excerpt: as §1, §2, §3, §4

[2] = tested on: N3-(109/133-788/829) chimera; assay: as above; assay type: cell-based; conditions: 10 nM; NCX3 with α1 and α2 regions of NCX1
Excerpt: as §1, §2, §3, §4

## O=C1CN=C(c2ccccc2)c2cc([N+](=O)[O-])ccc2N1CN1CCCC1 [neurounina-1, 7-nitro-5-phenyl-1-(pyrrolidin-1-ylmethyl)-1H-benzo[e][1,4]diazepin-2(3H)-one]
BHK cells
  cell viability: did not show any toxic effect; also recorded: did not affect
[1]; administered just before tMCAO induction, 3 ng/kg, intraperitoneal
  ischemic damage: significantly reduced ischemic damage
[1]; five hours from tMCAO, intraperitoneal
  minimal dose with neuroprotective effect: 0.03 mg/kg
[1]; intraperitoneally 3 hours after tMCAO, dose-range 3 ng/kg to 30 µg/kg
  neuroprotective effect: still present
[1]; mice, intraperitoneal administration, tMCAO
  ischemic volume: decreased the ischemic volume
N1-109/133
  pharmacological effect on N1-109/133 chimera: removed the pharmacological effect
N1-788/829
  pharmacological effect on N1-788/829 chimera: removed the pharmacological effect
[2]
  activity of N3-(109/133-788/829) chimera: significantly increased activity
